Experiments:
[1] = Isothermal titration calorimetry of the small molecule with zinc or copper; format: binding; details: ITC, data not shown
MCF-7 cells [2] = assay: Intracellular Zn^2+ by FluoZin-3 staining and flow cytometry; format: cell-based, human
Procedure: Measurement of intracellular Zn^2+ by FluoZin-3 staining: Cells were seeded in 6-well plates at a density such that at the time of analysis, wells would be 70-80% confluent. Following the completion of treatment, the drug-containing media was removed and replaced with Hank's Balanced Salt Solution (HBSS, Life Technologies) containing 2.5 μM FluoZin-3. The cells were incubated with the indicator for 30 minutes at room temperature in the dark. After staining, the cells were trypsinized, resuspended in HBSS containing 2% FBS, and relative mean fluorescence was measured by flow cytometry (FACscan, BD Biosciences, San Jose, Calif., USA).
In order to determine whether the transcriptional changes in metal trafficking genes were functionally relevant to ZNA's mechanism of action, intracellular Zn^2+ was quantified using the fluorescent indicator FluoZin-3 followed by flow cytometry analysis (FIG. 1G).
Further probing the ability of ZNA to stimulate increases in intracellular Zn^2+, MCF-10A and MCF-7 cells were treated for three hours with 30 μM ZNA (both with and without exogenous ZnSO4) in zinc-free media; intracellular zinc was then quantified by FluoZin-3 staining (FIG. 3B).

MCF-10A cells = assay: Total cellular Zn^2+ by ICP-AES; format: cell-based, human; details: 30 μM ZNA with 30 μM ZnSO4, three hours; detection limit 1.00 μg/L
Procedure: (§1) Inductively coupled plasma-atomic emission spectroscopy (ICP-AES) analysis: Cells were cultured to 80% confluence in 10-cm plates and the growth media was then replaced with low serum (2% FBS) drug-containing media. After three hours of treatment, the media was discarded and the cells washed with 1×PBS. To each 10-cm plate, 1 mL of nitric acid (TraceSELECT Ultra for trace analysis, Sigma) was added directly to the plate. The nitric acid mixture was submitted for inductively coupled plasma-atomic emission spectroscopy (ICP-AES) analysis following methods established by the Environmental Protection Agency. Martin T D, Brockhoff C A, Creed J T. Method 200.7 Determination of Metals and Trace Elements in Water and Wastes by Inductively Coupled Plasma-Atomic Emission Spectrometry. Environmental Monitoring Systems Laboratory, US Environmental Protection Agency 1994. The experiment was performed in triplicate for each cell line and a fourth plate of cells was used to measure total protein (BCA assay, Thermo Fisher, Waltham, Mass., USA). The ICP-AES data were then normalized to total protein for each cell line used.
(§2) To further validate the combinatorial effect of ZNA and Zn^2+, inductively coupled plasma-atomic emission spectroscopy (ICP-AES) was employed to quantify absolute levels of cellular Zn^2+ following treatment. Four cell lines were treated with either 30 μM ZNA alone or 30 μM ZNA in conjunction with 30 μM ZnSO4 for three hours before harvesting. The samples were then analyzed by ICP-AES and the resulting data normalized to total protein (FIG. 8). […] The values obtained from the ICP-AES experiment correlate with the trends observed following FluoZin-3 measurements of Zn^2+, confirming the specificity of the fluorophore for Zn^2+ over other ions.

MCF-7 cells [3] = assay: Total cellular Zn^2+ by ICP-AES; format: cell-based, human; details: 30 μM ZNA with 30 μM ZnSO4, three hours
Procedure: as §1, §2

MDA-MB-231 cells = assay: Total cellular Zn^2+ by ICP-AES; format: cell-based, human; details: 30 μM ZNA with 30 μM ZnSO4, three hours
Procedure: as §1, §2

T47D cells = assay: Total cellular Zn^2+ by ICP-AES; format: cell-based, human; details: 30 μM ZNA with 30 μM ZnSO4, three hours
Procedure: as §1, §2

[4] = tested on: mouse metallothionein expression (MT1 and MT2) in renal and hepatic tissue; assay: RT-PCR of metallothionein expression in tissue of treated mice; format: in vivo, FVB/NJ mice; details: ZNA 100 mg/kg intraperitoneal
Procedure: Real-Time PCR (RT-PCR): For experiments designed to measure gene expression, real-time PCR (RT-PCR) was conducted using a LightCycler 480 (Roche, Basel, Switzerland) and KAPA SYBR FAST qPCR Master Mix (Kapa Biosystems, Boston, Mass., USA). […] Genomic DNA was removed with a DNase digest and 1 μg of RNA was used to synthesize cDNA using a Superscript III Reverse Transcriptase kit from Invitrogen per the manufacturer's protocol; after an RNase H digestion, RT-PCR was performed in a 5 μL reaction using KAPA SYBR FAST qPCR Master Mix (Kapa Biosystems, Boston, Mass., USA). […]; Nat Protocols 2008; 3(6):1101-08. For tissue derived from mouse in vivo experiments, fresh tissue was homogenized using a TissueLyser II for 3 minutes at 30 Hz before isolating RNA.
The next experiment established the relevancy of the biological pathways targeted by ZNA in a whole organism tumor model. To establish bioactivity, the response of normal tissue to ZNA was evaluated. Non-tumor bearing FVB/NJ mice were treated with ZNA (at 100 mg/kg administered via intraperitoneal injection) or a control for either 3 or 24 hours. RT-PCR was used to assess mouse metallothionein expression (MT1 and MT2) in renal and hepatic tissue from the treated mice.

With `COc1ccc(-c2c(Cc3ccccc3)[nH]/c(=N\C(=O)c3ccccc3F)n2C)cc1` [ZNA, (E)-N-(4-benzyl-5-(4-methoxyphenyl)-1-methyl-1H-imidazol-2(3H)-ylidene)-2-fluorobenzamide] the “direct interaction with zinc or copper” value [1] was “no evidence to suggest direct binding”, the “increase in FluoZin-3 fluorescence” value (MCF-7 cells [2]; 30 μM ZNA alone, 48 hours) was 13 fold and the FluoZin-3 fluorescence (MCF-7 cells [2]; 30 μM ZNA alone, three hours, zinc-free media) was “no significant increase in FluoZin-3 fluorescence”. The “increase in fluorescence (FluoZin-3)” value (MCF-7 cells [2]; ZNA and ZnSO4, three hours, zinc-free media, compared to ZnSO4 alone) was 4.3 fold, the “concentration of Zn^2+” value (MCF-10A cells) was “not detectable” and the “concentration of Zn^2+” value (MCF-7 cells [3]) was 1.35 ng Zn^2+ per microgram of protein. For the same molecule, the “concentration of Zn^2+” value (MDA-MB-231 cells) was 0.82 ng Zn^2+ per microgram of protein, the “concentration of Zn^2+” value (T47D cells) was 0.52 ng Zn^2+ per microgram of protein and the “MT1 and MT2 expression” value ([4]; 3 hours, vs control treated mice) was “increased”. For the same molecule, the “MT1 and MT2 expression” value ([4]; 24 hours) was “decreased”.

Reference: patent US10493061B2, “Compositions and methods comprising 2-(acylamino)imidazoles” (priority 2014, dated 2019)
